No end group written: not given here.
System: A. thaliana seedlings
Experiment: Seedling growth inhibition (fresh weight)
Format: in vivo, Arabidopsis thaliana
Details: mock mean = 1
Protocol: Four-day-old seedlings growing on MS plates were transferred individually into separate wells of transparent 48-well tissue culture plates (Greiner Bio-One) containing 500 μL of liquid MS media with/without elicitor addition. The plates were then transferred back to the growth conditions for an additional 10 days before seedlings were blot-dried and weighed.

For GTGPSHSGHGGSS [SCOOP9], the “Seedling fresh weight (Fig3C), relative to mock” value (Col-0, 1 μM, replicate 1) was 0.7762, the “Seedling fresh weight (Fig3C), relative to mock” value (Col-0, 1 μM, replicate 2) was 0.8462 and the “Seedling fresh weight (Fig3C), relative to mock” value (Col-0, 1 μM, replicate 3) was 0.6605. The “Seedling fresh weight (Fig3C), relative to mock” value (Col-0, 1 μM, replicate 4) was 0.7701, the “Seedling fresh weight (Fig3C), relative to mock” value (Col-0, 1 μM, replicate 5) was 0.4809 and the “Seedling fresh weight (Fig3C), relative to mock” value (Col-0, 1 μM, replicate 6) was 0.5418. For the same sequence, the “Seedling fresh weight (Fig3C), relative to mock” value (Col-0, 1 μM, replicate 7) was 0.6179, the “Seedling fresh weight (Fig3C), relative to mock” value (Col-0, 1 μM, replicate 8) was 0.7457 and the “Seedling fresh weight (Fig3C), relative to mock” value (Col-0, 1 μM, replicate 9) was 0.8066. The “Seedling fresh weight (Fig3C), relative to mock” value (Col-0, 1 μM, replicate 10) was 0.831, the “Seedling fresh weight (Fig3C), relative to mock” value (Col-0, 1 μM, replicate 11) was 0.7549 and the “Seedling fresh weight (Fig3C), relative to mock” value (Col-0, 1 μM, replicate 12) was 0.7275. For the same sequence, the “Seedling fresh weight (Fig3C), relative to mock” value (Col-0, 10 μM, replicate 1) was 0.06065, the “Seedling fresh weight (Fig3C), relative to mock” value (Col-0, 10 μM, replicate 2) was 0.1274 and the “Seedling fresh weight (Fig3C), relative to mock” value (Col-0, 10 μM, replicate 3) was 0.1304. For the same sequence, the “Seedling fresh weight (Fig3C), relative to mock” value (Col-0, 10 μM, replicate 4) was 0.1061, the “Seedling fresh weight (Fig3C), relative to mock” value (Col-0, 10 μM, replicate 5) was 0.1395 and the “Seedling fresh weight (Fig3C), relative to mock” value (Col-0, 10 μM, replicate 6) was 0.08795. The “Seedling fresh weight (Fig3C), relative to mock” value (Col-0, 10 μM, replicate 7) was 0.1759, the “Seedling fresh weight (Fig3C), relative to mock” value (Col-0, 10 μM, replicate 8) was 0.2365 and the “Seedling fresh weight (Fig3C), relative to mock” value (Col-0, 10 μM, replicate 9) was 0.1395. The “Seedling fresh weight (Fig3C), relative to mock” value (Col-0, 10 μM, replicate 10) was 0.2032, the “Seedling fresh weight (Fig3C), relative to mock” value (Col-0, 10 μM, replicate 11) was 0.1789 and the “Seedling fresh weight (Fig3C), relative to mock” value (Col-0, 10 μM, replicate 12) was 0.1425. The “Seedling fresh weight (Fig3C), relative to mock” value (mik2-1, 1 μM, replicate 1) was 0.8374, the “Seedling fresh weight (Fig3C), relative to mock” value (mik2-1, 1 μM, replicate 2) was 1.059 and the “Seedling fresh weight (Fig3C), relative to mock” value (mik2-1, 1 μM, replicate 3) was 0.8173. For the same sequence, the “Seedling fresh weight (Fig3C), relative to mock” value (mik2-1, 1 μM, replicate 4) was 0.935, the “Seedling fresh weight (Fig3C), relative to mock” value (mik2-1, 1 μM, replicate 5) was 0.9081 and the “Seedling fresh weight (Fig3C), relative to mock” value (mik2-1, 1 μM, replicate 6) was 0.9484. For the same sequence, the “Seedling fresh weight (Fig3C), relative to mock” value (mik2-1, 1 μM, replicate 7) was 1.0157, the “Seedling fresh weight (Fig3C), relative to mock” value (mik2-1, 1 μM, replicate 8) was 1.056 and the “Seedling fresh weight (Fig3C), relative to mock” value (mik2-1, 1 μM, replicate 9) was 0.972. The “Seedling fresh weight (Fig3C), relative to mock” value (mik2-1, 1 μM, replicate 10) was 1.002, the “Seedling fresh weight (Fig3C), relative to mock” value (mik2-1, 1 μM, replicate 11) was 1.066 and the “Seedling fresh weight (Fig3C), relative to mock” value (mik2-1, 1 μM, replicate 12) was 1.039. The “Seedling fresh weight (Fig3C), relative to mock” value (mik2-1, 10 μM, replicate 1) was 0.8757, the “Seedling fresh weight (Fig3C), relative to mock” value (mik2-1, 10 μM, replicate 2) was 0.9704 and the “Seedling fresh weight (Fig3C), relative to mock” value (mik2-1, 10 μM, replicate 3) was 1.224. For the same sequence, the “Seedling fresh weight (Fig3C), relative to mock” value (mik2-1, 10 μM, replicate 4) was 0.9062, the “Seedling fresh weight (Fig3C), relative to mock” value (mik2-1, 10 μM, replicate 5) was 0.9941 and the “Seedling fresh weight (Fig3C), relative to mock” value (mik2-1, 10 μM, replicate 6) was 0.8622. For the same sequence, the “Seedling fresh weight (Fig3C), relative to mock” value (mik2-1, 10 μM, replicate 7) was 0.9772, the “Seedling fresh weight (Fig3C), relative to mock” value (mik2-1, 10 μM, replicate 8) was 0.9028 and the “Seedling fresh weight (Fig3C), relative to mock” value (mik2-1, 10 μM, replicate 9) was 0.94. For the same sequence, the “Seedling fresh weight (Fig3C), relative to mock” value (mik2-1, 10 μM, replicate 10) was 1.021, the “Seedling fresh weight (Fig3C), relative to mock” value (mik2-1, 10 μM, replicate 11) was 0.9062 and the “Seedling fresh weight (Fig3C), relative to mock” value (mik2-1, 10 μM, replicate 12) was 0.9298.
ETPPSRSRRGGGG [SCOOP1] was tested, and the “Seedling fresh weight (Fig3C), relative to mock” value (Col-0, 1 μM, replicate 1) was 0.767, the “Seedling fresh weight (Fig3C), relative to mock” value (Col-0, 1 μM, replicate 2) was 0.7214 and the “Seedling fresh weight (Fig3C), relative to mock” value (Col-0, 1 μM, replicate 3) was 0.5418. For the same sequence, the “Seedling fresh weight (Fig3C), relative to mock” value (Col-0, 1 μM, replicate 4) was 0.6909, the “Seedling fresh weight (Fig3C), relative to mock” value (Col-0, 1 μM, replicate 5) was 0.3379 and the “Seedling fresh weight (Fig3C), relative to mock” value (Col-0, 1 μM, replicate 6) was 0.5266. For the same sequence, the “Seedling fresh weight (Fig3C), relative to mock” value (Col-0, 1 μM, replicate 7) was 0.5662, the “Seedling fresh weight (Fig3C), relative to mock” value (Col-0, 1 μM, replicate 8) was 0.6453 and the “Seedling fresh weight (Fig3C), relative to mock” value (Col-0, 1 μM, replicate 9) was 0.5753. The “Seedling fresh weight (Fig3C), relative to mock” value (Col-0, 1 μM, replicate 10) was 0.5996, the “Seedling fresh weight (Fig3C), relative to mock” value (Col-0, 1 μM, replicate 11) was 0.6118 and the “Seedling fresh weight (Fig3C), relative to mock” value (Col-0, 1 μM, replicate 12) was 0.4961. The “Seedling fresh weight (Fig3C), relative to mock” value (Col-0, 10 μM, replicate 1) was 0.2426, the “Seedling fresh weight (Fig3C), relative to mock” value (Col-0, 10 μM, replicate 2) was 0.2002 and the “Seedling fresh weight (Fig3C), relative to mock” value (Col-0, 10 μM, replicate 3) was 0.1668. The “Seedling fresh weight (Fig3C), relative to mock” value (Col-0, 10 μM, replicate 4) was 0.1698, the “Seedling fresh weight (Fig3C), relative to mock” value (Col-0, 10 μM, replicate 5) was 0.06065 and the “Seedling fresh weight (Fig3C), relative to mock” value (Col-0, 10 μM, replicate 6) was 0.1729. For the same sequence, the “Seedling fresh weight (Fig3C), relative to mock” value (Col-0, 10 μM, replicate 7) was 0.1759, the “Seedling fresh weight (Fig3C), relative to mock” value (Col-0, 10 μM, replicate 8) was 0.2305 and the “Seedling fresh weight (Fig3C), relative to mock” value (Col-0, 10 μM, replicate 9) was 0.2092. For the same sequence, the “Seedling fresh weight (Fig3C), relative to mock” value (Col-0, 10 μM, replicate 10) was 0.1607, the “Seedling fresh weight (Fig3C), relative to mock” value (Col-0, 10 μM, replicate 11) was 0.2244 and the “Seedling fresh weight (Fig3C), relative to mock” value (Col-0, 10 μM, replicate 12) was 0.2032. The “Seedling fresh weight (Fig3C), relative to mock” value (mik2-1, 1 μM, replicate 1) was 1.15, the “Seedling fresh weight (Fig3C), relative to mock” value (mik2-1, 1 μM, replicate 2) was 1.076 and the “Seedling fresh weight (Fig3C), relative to mock” value (mik2-1, 1 μM, replicate 3) was 1.026. For the same sequence, the “Seedling fresh weight (Fig3C), relative to mock” value (mik2-1, 1 μM, replicate 4) was 1.019, the “Seedling fresh weight (Fig3C), relative to mock” value (mik2-1, 1 μM, replicate 5) was 1.076 and the “Seedling fresh weight (Fig3C), relative to mock” value (mik2-1, 1 μM, replicate 6) was 0.9888. For the same sequence, the “Seedling fresh weight (Fig3C), relative to mock” value (mik2-1, 1 μM, replicate 7) was 1.049, the “Seedling fresh weight (Fig3C), relative to mock” value (mik2-1, 1 μM, replicate 8) was 1.026 and the “Seedling fresh weight (Fig3C), relative to mock” value (mik2-1, 1 μM, replicate 9) was 0.9619. The “Seedling fresh weight (Fig3C), relative to mock” value (mik2-1, 1 μM, replicate 10) was 0.9215, the “Seedling fresh weight (Fig3C), relative to mock” value (mik2-1, 1 μM, replicate 11) was 0.9619 and the “Seedling fresh weight (Fig3C), relative to mock” value (mik2-1, 1 μM, replicate 12) was 0.9922. The “Seedling fresh weight (Fig3C), relative to mock” value (mik2-1, 10 μM, replicate 1) was 1.089, the “Seedling fresh weight (Fig3C), relative to mock” value (mik2-1, 10 μM, replicate 2) was 0.9298 and the “Seedling fresh weight (Fig3C), relative to mock” value (mik2-1, 10 μM, replicate 3) was 0.9231. The “Seedling fresh weight (Fig3C), relative to mock” value (mik2-1, 10 μM, replicate 4) was 0.9738, the “Seedling fresh weight (Fig3C), relative to mock” value (mik2-1, 10 μM, replicate 5) was 0.9332 and the “Seedling fresh weight (Fig3C), relative to mock” value (mik2-1, 10 μM, replicate 6) was 0.9028. The “Seedling fresh weight (Fig3C), relative to mock” value (mik2-1, 10 μM, replicate 7) was 1.008, the “Seedling fresh weight (Fig3C), relative to mock” value (mik2-1, 10 μM, replicate 8) was 0.9704 and the “Seedling fresh weight (Fig3C), relative to mock” value (mik2-1, 10 μM, replicate 9) was 1.085. For the same sequence, the “Seedling fresh weight (Fig3C), relative to mock” value (mik2-1, 10 μM, replicate 10) was 1.031, the “Seedling fresh weight (Fig3C), relative to mock” value (mik2-1, 10 μM, replicate 11) was 0.9569 and the “Seedling fresh weight (Fig3C), relative to mock” value (mik2-1, 10 μM, replicate 12) was 0.967.

Reference: paper PMC7846792, “Perception of a divergent family of phytocytokines by the Arabidopsis receptor kinase MIK2” (Nature Communications, 2021)
